Data on 78 compounds can be found in article PMC12040169 (PLOS Biology, 2025).

This data set in a line: in vitro. The following applies: human, hela cells, % viability.

By viability is commonly meant a read-out of living cells in per cent, often relative to untreated cells. As for `CCOc1ccc(Cl)cc1CN(C)C(=O)NCc1nccn1C(C)C` [CBK307111], the viability at 28.5 h, 10 µM came out at 101%.
In the case of `O=C(NCc1ccccc1)c1cccc(NC(=O)c2cc(-c3ccncc3)nc3ccc(Cl)cc23)c1` [CBK267769], the viability at 28.5 h, 10 µM came out at 117%.
The same measure, in the same setting: then `COc1cccc2c1cc(C(=O)NCCCc1ccccn1)n2C` [CBK283283], with 83.7%; and `Cc1ccc(Cl)cc1NC(=O)c1cc(NC(=O)C2CC=CCC2C(=O)O)ccc1N1CCOCC1` (stereo not drawn) [CBK268479], with 99.1%.
Regarding `CCNC(=O)c1ccccc1NC(=O)C(C)Oc1ccccc1` (stereo not drawn) [CBK269933], the viability at 28.5 h, 10 µM was found to be 85.8%.
The same measure, in the same setting: under `COc1ccc(CCNC(=O)c2ccccc2NS(=O)(=O)c2cc(C(=O)O)ccc2OC)cc1` [CBK297506] stands 90.8%.
The same measure, in the same setting: under `C1CCc2nnc(C34CC5CC(CC(C5)C3)C4)n2CC1` [CBK200068] stands 83.5%.
Still for that read-out and setting: then `COc1ccc(S(=O)(=O)N(C)CC(=O)O)c2ccccc12` [CBK268459], with 105%.
Turning to `CCc1noc(C)c1C(=O)N1CC(C(=O)N2CCN(c3ccccc3)CC2)C1` [CBK285667], the viability at 28.5 h, 10 µM came out at 107%.
The same measure, in the same setting: under `c1ccc(CN2CCC(N3CCC(N4CCc5ccccc5C4)CC3)CC2)cc1` [CBK264730G] stands 91%; under `Cc1cccc(N2C(=O)c3ccc(C(=O)OC(C(=O)c4ccccc4)c4ccccc4)cc3C2=O)c1` (stereo not drawn) [CBK265098], 88.8%; under `Clc1ccc(-c2csc(NCc3ccco3)n2)cc1` [CBK058168], 109%.
Still for that read-out and setting: under `Cc1ccc(C2CCCN2C(=O)c2ccc(=O)n(CC(=O)N(C)c3ccccc3)c2)cc1C` (stereo not drawn) [CBK285653] stands 107%.
Same read-out and setting: then `Cc1ccc(S(=O)(=O)N2CCN(c3nc(NC(C)c4ccccc4)c4ccccc4n3)CC2)cc1` (stereo not drawn) [CBK266448], with 106%; and `Cc1cc(=O)n(CC(=O)NCCn2ccnc2)c2ccccc12` [CBK281583], with 94.3%; and `C/C(=N/OCO/N=C(\C)c1cccc([N+](=O)[O-])c1)c1cccc([N+](=O)[O-])c1` [CBK260872], with 89%.
Consider `Cc1ccc(CNC(Cc2c[nH]c3ccccc23)C(=O)O)cc1` (stereo not drawn) [CBK287145], for which the viability at 28.5 h, 10 µM was 106%.
Still for that read-out and setting: under `O=C(Cc1ccc(Cl)c(Cl)c1)N1CCCC2(CCN(C(=O)c3ccoc3)C2)C1` (stereo not drawn) [CBK131619] stands 87.4%.
On the same count and under the same terms, then `O=S(=O)(NC(c1c[nH]c2ccccc12)C(Cl)(Cl)Cl)c1ccccc1` (stereo not drawn) [CBK263279], with 91.7%; and `CCCOCC1CCN(C(=O)Nc2ccc(Oc3cccnc3)cc2)C1` (stereo not drawn) [CBK306799], with 102%; and `C1CN(c2nc(N3CCOCC3)nc(N3CCOCC3)n2)CCN1` [CBK261380], with 84.9%.
The same measure, in the same setting: under `O/N=C/c1ccc(-c2cc(Cl)ccc2Cl)o1` [CBK288500] stands 92.6%; under `CC(C)n1ncc2c1NC(=O)CC2c1ccc2c(c1)n(C)c(=O)n2C` (stereo not drawn) [CBK287926], 108%; under `S=C(NCCc1ccccc1)Nc1ccc2c(c1)OCCO2` [CBK267048], 110%.
As to `O=C(Cc1ccccc1)N1CCc2c([nH]c3ccccc23)C12CCNC2` (stereo not drawn) [CBK059461], the viability at 28.5 h, 10 µM was found to be 98.9%.
Still for that read-out and setting: then `O=C1C(=CNCCN2CCOCC2)C(=O)c2ccccc21` [CBK263008], with 109%; and `CN1C2CCC1CC(OC(=O)CN1CCCCC1)C2` (stereo not drawn) [CBK278166C], with 109%; and `COc1ccc(CCC(=O)N2CCCc3c(cnn3C)C2)cc1` [CBK285326], with 111%.
With `NCC1CCN(c2cc(C(F)(F)F)c3scc(C(=O)NCCC4=CCCCC4)c3n2)CC1` [CBK028475], the viability at 28.5 h, 10 µM turned out to be 83.2%.
Still for that read-out and setting: then `COc1cc2nc(S)n(CCc3ccc(S(N)(=O)=O)cc3)c(=O)c2cc1OC` [CBK268457], with 84.4%; and `Cc1ccc(OCc2occc2C(=O)N2CCCCC(N)C2)cc1` (stereo not drawn) [CBK306840], with 107%; and `CC(=O)Nc1cccc(-c2ccc(N3CCN(CCN(C)C)CC3)nc2)c1` [CBK036857], with 104%.
The same measure, in the same setting: under `Cc1ccc(S(=O)(=O)NC(CO)C(=O)O)cc1` (stereo not drawn) [CBK260965] stands 96%.
On the same count and under the same terms, then `Cc1ccc(-n2c(SCC(=O)Nc3ccccc3C#N)nnc2-c2cc(Br)ccc2O)c(C)c1` [CBK268743], with 94.1%; and `Cc1csc(CNCc2c(C(C)C)nn(C)c2N(C)C)n1` [CBK305089], with 83.7%.
`Cc1ccc(N2C(=O)/C(=C/c3ccc(OCC(=O)O)c(Cl)c3)C(=O)NC2=S)c(C)c1` [CBK264043]: for the setting “bulk resorufin, single well”, the viability at 28.5 h, 10 µM is 109%.
Consider `Cc1ccc2cc(S(=O)(=O)NCCC(=O)O)ccc2c1` [CBK267569], for which the viability at 28.5 h, 10 µM amounted to 96.5%.
On the same count and under the same terms, then `Cc1cc(C(F)(F)F)n2ncc(C(=O)N3CCCC3c3ccco3)c2n1` (stereo not drawn) [CBK306557], with 93.5%.
The same measure, in the same setting: then `NS(=O)(=O)c1ccc(NC(=O)CSc2cccc3ccccc23)cc1` [CBK268987], with 93.2%; and `CC1(C)[C@H](Cc2cc(CC3CCCCC3)on2)C[C@@H]1NC(=O)C1CCCC1` [CBK289256], with 84.7%; and `CCN(Cc1ccncc1)C(=O)NCCCN1CCN(C)CC1` [CBK155123], with 108%.
Still for that read-out and setting: under `Cc1nnc(SCCn2c(N3CCCCC3)nc3c2c(=O)n(C)c(=O)n3C)s1` [CBK269288] stands 103%; under `COc1cc(CNc2nc(-c3c(C)cccc3C)cn3ccnc23)cc(OC)c1OC` [CBK037415], 91.1%; under `COC(=O)c1ccc(NC(=O)CSc2nnc(-c3ccc(C)cc3)n2N)cc1` [CBK266114], 89.9%.
On to `CCc1nn(CC(=O)NC2CCCC2)c(=O)c2cc3sccc3n12` [CBK284077], for which the viability at 28.5 h, 10 µM came to 84%.
Still for that read-out and setting: then `COCc1cc(C[C@H]2CNCC[C@H]2CC(=O)N2CCCCC2)no1` [CBK288899], with 109%; and `O=c1[nH]c(=O)n([C@@H]2O[C@H](CO)[C@H](O)C2O)cc1Br` (stereo partly drawn) [CBK201180], with 87.2%.
With `CC(c1ccc(Cl)cc1)N(CCN(C)C)c1ccccn1` (stereo not drawn) [CBK012273F], the viability at 28.5 h, 10 µM is 100%.
Still for that read-out and setting: under `O=C(O)CC1SC(=O)N(c2ccccc2)C1=O` (stereo not drawn) [CBK287085] stands 78.8%; under `CC(Cn1cncc1-c1cnn(C)c1)Oc1ccccc1Cl` (stereo not drawn) [CBK281737], 105%; under `Cc1cc(C)n(CC(C)NC(=O)N2CCC(Oc3cccnc3)C2)n1` (stereo not drawn) [CBK305342], 92.1%.
Same read-out and setting: under `CS(=O)(=O)N1CCc2cc(S(=O)(=O)N3CCN(c4ccc([N+](=O)[O-])c(NCc5ccccc5)c4)CC3)ccc21` [CBK268311] stands 102%; under `Cc1nc(-c2ccccc2)sc1CNC(=O)/C=C/c1c[nH]cn1` [CBK092368], 83.3%.
The same measure, in the same setting: under `C=CCn1c(Cc2csc(NC(=O)c3cc(S(=O)(=O)NC)ccc3C)n2)n[nH]c1=S` [CBK297903] stands 105%; under `CCOC(=O)CN1CC(O)CC1c1cccc(C(F)(F)F)c1` (stereo not drawn) [CBK304169], 97.9%; under `c1cnn(C2CCN(Cc3ccc(Oc4cnccn4)cc3)CC2)c1` [CBK306417], 85.7%.
As for `CC(CCCC(C)(C)O)Nc1cncc(-c2cccc(Cl)c2)n1` (stereo not drawn) [CBK037857], the viability at 28.5 h, 10 µM came to 90.1%.
With `CCN1CCN(S(=O)(=O)c2cccc([N+](=O)[O-])c2)CC1` [CBK266675], the viability at 28.5 h, 10 µM came out at 83.8%.
Turning to `NCc1ccc(C(=O)N(CCc2cc(C(F)(F)F)cc(C(F)(F)F)c2)c2ccc(Cl)c(Cl)c2)cc1` [CBK008632T], the viability at 28.5 h, 10 µM turned out to be 112%.
As for `O=C(NS(=O)(=O)c1cccc(-c2nnco2)c1)C1CC1C1CCCCC1` (stereo not drawn) [CBK305924], the viability at 28.5 h, 10 µM turned out to be 90.8%.
Same read-out and setting: under `O=C(O)c1ccc(CNC(=O)c2ccc(Cl)c(S(=O)(=O)N3CCCC3)c2)cc1` [CBK297096] stands 95.7%.
On the same count and under the same terms, then `O=C1NCC2(C/C=C/CCOc3ccccc31)CCN(Cc1ccccn1)CC2` [CBK292159], with 84.2%.
`O=C(NC1CCS(=O)(=O)C1)c1c[nH]c2ccccc2c1=O` (stereo not drawn) [CBK304295]: the viability at 28.5 h, 10 µM was 88.7%.
Take `O=C(COc1ccc(N2CC(C(=O)O)CC2=O)cc1)Nc1cccc(C(F)(F)F)c1` (stereo not drawn) [CBK268096]: the viability at 28.5 h, 10 µM came to 100%.
On the same count and under the same terms, under `O=C(CSc1nnc(CN2CCOCC2)n1-c1ccc(Cl)cc1)N1c2ccccc2SC2C=CC=CC21` (stereo not drawn) [CBK268820] stands 91.3%; under `CN(C)CCN(C)c1cc(-c2cccc(C(=O)O)c2)nc2ccnn12` [CBK037206], 101%.
On to `NS(=O)(=O)c1cccc(NC(=O)COc2ccc([N+](=O)[O-])cc2)c1` [CBK263624], for which the viability at 28.5 h, 10 µM was 92.2%.
Still for that read-out and setting: under `Cc1cccn2c(=O)c(/C=C3\SC(=S)NC3=O)c(NCCCN3CCOCC3)nc12` [CBK264904] stands 104%; under `COCCN1CC(CNC(=O)c2cccc(F)c2O)CC1=O` (stereo not drawn) [CBK304386], 107%; under `c1ccc(Nc2c(-c3ccccc3)nc3[nH]cnn23)cc1` [CBK287284], 89.4%.
As to `CN(C)Cc1ccc(C(=O)NCC(C)(C)N2CCCCC2)cc1` [CBK281865], the viability at 28.5 h, 10 µM turned out to be 104%.
Same read-out and setting: then `COc1ccc(OC)c(CN2CCCN(C)CC2)c1` [CBK261554], with 96.1%; and `CC1Cc2cc(-c3cncn3CC(=O)NC(C)(C)C)ccc2N1C` (stereo not drawn) [CBK281699], with 77.3%; and `O=C(CCN1CCc2ccccc2C1)Nc1cccc(F)c1` [CBK264282], with 103%.
For `O=C(CCN1C(=O)c2cccc([N+](=O)[O-])c2C1=O)Nc1cccc(-c2cnc3ccccc3n2)c1` [CBK268620], the viability at 28.5 h, 10 µM was 104%.
Still for that read-out and setting: under `OC1(c2cccnc2)CCCN(Cc2ccccc2F)CC1` (stereo not drawn) [CBK283009] stands 96.4%.
As for `Cc1cc(C)c2cc(CNC3CC3)c3nn(C)c(=O)n3c2c1` [CBK283186], the viability at 28.5 h, 10 µM amounted to 93.8%.
Take `COc1ccc(C(NC(=O)COc2c(Cl)cc(C(=O)O)cc2Cl)C(C)C)cc1` (stereo not drawn) [CBK295344]: the viability at 28.5 h, 10 µM was 87.3%.
